From ChEMBL document CHEMBL4831506, “Discovery of novel trimethoxyphenylbenzo[d]oxazoles as dual tubulin/PDE4 inhibitors capable of inducing apoptosis at G2/M phase arrest in glioma and lung cancer cells” (Eur J Med Chem, 2021)
The source made the active and inactive calls. The rule behind the calls is not given here.

Columns and labels:
[1] = test system: U-251; test: Induction of apoptosis in human U-251 cells assessed as increase in late apoptotic cells at 1000 nM measured after 24 hrs by PI/FITC analysis (reference value: 0.311%); assay type: functional
[2] = test system: A549; test: Cell cycle arrest in human A549 cells assessed as G2/M phase at 500 nM measured after 24 hrs by propidium iodide staining based flow cytometry analysis (reference value: 6.08%); assay type: functional
[3] = test system: A549; test: Induction of apoptosis in human A549 cells assessed as increase in viable cells at 200 nM measured after 24 hrs by PI/FITC analysis (reference value: 98.4%); assay type: functional
[4] = test system: U-251; test: Cell cycle arrest in human U-251 cells assessed as G0/G1 phase at 200 nM measured after 24 hrs by propidium iodide staining based flow cytometry analysis (reference value: 67.34%); assay type: functional
[5] = test system: U-251; test: Cell cycle arrest in human U-251 cells assessed as S phase at 1000 nM measured after 24 hrs by propidium iodide staining based flow cytometry analysis (reference value: 18.23%); assay type: functional
[6] = test system: U-251; test: Induction of apoptosis in human U-251 cells assessed as increase in necrotic cells at 500 nM measured after 24 hrs by PI/FITC analysis (reference value: 0.301%); assay type: functional
[7] = test system: U-251; test: Induction of apoptosis in human U-251 cells assessed as increase in necrotic cells at 200 nM measured after 24 hrs by PI/FITC analysis (reference value: 0.301%); assay type: functional
[8] = test system: A549; test: Cell cycle arrest in human A549 cells assessed as G0/G1 phase at 500 nM incubated for 24 hrs by propidium iodide staining based flow cytometry analysis (reference value: 79.14%); assay type: functional
[9] = test system: A549; test: Induction of apoptosis in human A549 cells assessed as increase in necrotic cells at 50 nM measured after 24 hrs by PI/FITC analysis (reference value: 0.365%); assay type: functional
[10] = test system: U-251; test: Induction of apoptosis in human U-251 cells assessed as increase in apoptotic cells at 500 nM measured after 24 hrs by PI/FITC analysis (reference value: 2.39%); assay type: functional
[11] = test system: A549; test: Antiproliferative activity against human A549 cells after 48 hrs by MTT assay; assay type: functional, cell-based; conditions: A549, 48 h
[12] = test system: A549; test: Cell cycle arrest in human A549 cells assessed as G0/G1 phase at 50 nM measured after 24 hrs by propidium iodide staining based flow cytometry analysis (reference value: 79.14%); assay type: functional
[13] = test system: U-251; test: Cell cycle arrest in human U-251 cells assessed as G0/G1 phase at 500 nM measured after 24 hrs by propidium iodide staining based flow cytometry analysis (reference value: 67.34%); assay type: functional
[14] = test system: A549; test: Induction of apoptosis in human A549 cells assessed as increase in early apoptotic cells at 500 nM measured after 24 hrs by PI/FITC analysis (reference value: 0.955%); assay type: functional
[15] = test system: A549; test: Cell cycle arrest in human A549 cells assessed as S phase at 200 nM measured after 24 hrs by propidium iodide staining based flow cytometry analysis (reference value: 14.78%); assay type: functional
[16] = test system: U-251; test: Induction of apoptosis in human U-251 cells assessed as increase in early apoptotic cells at 200 nM measured after 24 hrs by PI/FITC analysis (reference value: 1.12%); assay type: functional
[17] = test system: A549; test: Induction of apoptosis in human A549 cells assessed as increase in late apoptotic cells at 200 nM measured after 24 hrs by PI/FITC analysis (reference value: 0.955%); assay type: functional
[18] = species: Sus scrofa; test: Inhibition of pig brain tubulin polymerization at 1 uM by spectrometric method relative to control; assay type: tissue-based
[19] = test system: U-251; test: Induction of apoptosis in human U-251 cells assessed as increase in early apoptotic cells at 1000 nM measured after 24 hrs by PI/FITC analysis (reference value: 1.12%); assay type: functional
[20] = test system: U-251; test: Induction of apoptosis in human U-251 cells assessed as increase in viable cells at 500 nM measured after 24 hrs by PI/FITC analysis (reference value: 98.3%); assay type: functional
[21] = test system: U-251; test: Induction of apoptosis in human U-251 cells assessed as increase in viable cells at 200 nM measured after 24 hrs by PI/FITC analysis (reference value: 98.3%); assay type: functional
[22] = test system: A549; test: Induction of apoptosis in human A549 cells assessed as increase in necrotic cells at 200 nM measured after 24 hrs by PI/FITC analysis (reference value: 0.365%); assay type: functional
[23] = test system: A549; test: Cell cycle arrest in human A549 cells assessed as S phase at 50 nM measured after 24 hrs by propidium iodide staining based flow cytometry analysis (reference value: 14.78%); assay type: functional
[24] = test system: A549; test: Cell cycle arrest in human A549 cells assessed as S phase at 500 nM measured after 24 hrs by propidium iodide staining based flow cytometry analysis (reference value: 14.78%); assay type: functional
[25] = test system: A549; test: Induction of apoptosis in human A549 cells assessed as increase in apoptotic cells at 500 nM measured after 24 hrs by PI/FITC analysis (reference value: 1.437%); assay type: functional
[26] = molecular target: 3',5'-cyclic-AMP phosphodiesterase 4C (Homo sapiens, UniProt Q08493); test: Inhibition of PDE4 CAT (unknown origin)
Sequence of 3',5'-cyclic-AMP phosphodiesterase 4C (Q08493 whole entry): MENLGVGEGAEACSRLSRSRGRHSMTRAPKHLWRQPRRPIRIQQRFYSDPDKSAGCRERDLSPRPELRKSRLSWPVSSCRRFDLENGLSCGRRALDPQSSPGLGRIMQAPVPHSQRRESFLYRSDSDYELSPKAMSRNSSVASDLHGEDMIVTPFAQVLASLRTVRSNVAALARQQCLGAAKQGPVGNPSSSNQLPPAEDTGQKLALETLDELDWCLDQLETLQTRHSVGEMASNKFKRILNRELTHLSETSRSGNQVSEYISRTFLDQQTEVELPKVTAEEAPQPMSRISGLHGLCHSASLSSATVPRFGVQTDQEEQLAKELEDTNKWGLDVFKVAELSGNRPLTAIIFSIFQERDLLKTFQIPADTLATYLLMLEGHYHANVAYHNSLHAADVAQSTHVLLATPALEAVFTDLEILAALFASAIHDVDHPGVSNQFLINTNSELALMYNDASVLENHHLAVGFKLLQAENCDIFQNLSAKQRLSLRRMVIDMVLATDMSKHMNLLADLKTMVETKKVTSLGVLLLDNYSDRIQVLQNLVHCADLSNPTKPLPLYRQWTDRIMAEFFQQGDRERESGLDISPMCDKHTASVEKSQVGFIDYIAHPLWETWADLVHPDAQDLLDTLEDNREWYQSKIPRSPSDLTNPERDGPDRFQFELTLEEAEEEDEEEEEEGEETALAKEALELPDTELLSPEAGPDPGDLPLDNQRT

[27] = test system: A549; test: Induction of apoptosis in human A549 cells assessed as increase in early apoptotic cells at 50 nM measured after 24 hrs by PI/FITC analysis (reference value: 0.955%); assay type: functional
[28] = test system: A549; test: Cell cycle arrest in human A549 cells assessed as G0/G1 phase at 200 nM measured after 24 hrs by propidium iodide staining based flow cytometry analysis (reference value: 79.14%); assay type: functional
[29] = test system: A549; test: Cell cycle arrest in human A549 cells assessed as decrease in cdc25C expression by Western blot analysis; assay type: functional, cell-based; conditions: dose 50-500 nM
[30] = test system: A549; test: Induction of apoptosis in human A549 cells assessed as increase in viable cells at 500 nM measured after 24 hrs by PI/FITC analysis (reference value: 98.4%); assay type: functional
[31] = test system: U-251; test: Induction of apoptosis in human U-251 cells assessed as increase in viable cells at 1000 nM measured after 24 hrs by PI/FITC analysis (reference value: 98.3%); assay type: functional
[32] = molecular target: Tubulin (Homo sapiens) (UniProt P68371+Q9H4B7+P0DPH7+P68366+Q13509+Q71U36+P04350+Q3ZCM7+P07437+P68363+Q9BQE3+Q6PEY2+Q13885+Q9BVA1+Q9BUF5); test: Inhibition of tubulin assembly in human A549 cells measured after 24 hrs; assay type: cell-based
[33] = test system: U-251; test: Antiproliferative activity against human U-251 cells after 48 hrs by MTT assay; assay type: functional, cell-based; conditions: U-251, 48 h
[34] = test system: A549; test: Induction of apoptosis in human A549 cells assessed as increase in late apoptotic cells at 500 nM measured after 24 hrs by PI/FITC analysis (reference value: 0.955%); assay type: functional
[35] = test system: A549; test: Induction of apoptosis in human A549 cells assessed as increase in early apoptotic cells at 200 nM measured after 24 hrs by PI/FITC analysis (reference value: 0.955%); assay type: functional
[36] = test system: U-251; test: Cell cycle arrest in human U-251 cells assessed as G2/M phase at 1000 nM measured after 24 hrs by propidium iodide based flow cytometry analysis (reference value: 14.43%); assay type: functional

COc1cc(-c2cccc3nc(-c4ccc5cc[nH]c5c4)oc23)cc(OC)c1OC was tested, and the Activity [1] was 15.8%, the Activity [2] was 68.09% and the Activity [3] was 79.8%. It also gave an Activity [4] of 43.71%, an Activity [5] of 14.77% and an Activity [6] of 2.92%. It also gave an Activity [7] of 2.01%, an Activity [8] of 3.89% and an Activity [9] of 0.603%. It also gave an Activity [10] of 20.98%, an IC50 [11] of 55 nM and an Activity [12] of 55.78%. It also gave an Activity [13] of 34.64%, an Activity [14] of 11.1% and an Activity [15] of 23.43%. It also gave an Activity [16] of 3.09%, an Activity [17] of 0.85% and an inhibition [18] of 40%. It also gave an Activity [19] of 5.18%, an Activity [20] of 83.1% and an Activity [21] of 98%. For the same compound, the Activity [22] was 1.61%, the Activity [23] was 24.79% and the Activity [24] was 28.03%. The Activity [25] was 26.5%, the IC50 [26] was 1250 nM and the Activity [27] was 5.32%. For the same compound, the Activity [28] was 15.24%, the Activity [29] was “Dose-Dependent Effect” and the Activity [30] was 70.7%. For the same compound, the Activity [31] was 77.4%, the inhibition [32] was “Active” and the IC50 [33] was 300 nM. It also gave an Activity [34] of 15.4%, an Activity [35] of 9.7% and an Activity [36] of 71.69%.
